Source: patent US7687472B2, “Methods and compositions for treating hyperglycemic, hyperlipidemic, or hyperinsulinemic disorders” (Ohio University, priority 2004, dated 2010)

What was measured:
Glut4 = Glut4 translocation by immunostaining and confocal microscopy in 3T3-L1 adipocytes; format: cell-based; settings: FIG. 3
Description: FIG. 3 illustrates induced Glut4 translocation. 3T3-L1 adipocytes were either uninduced, or induced by 1 μM insulin, or 30 μM 6Cl-α-TGQ. The treated cells were immunostained with an anti-Glut4 antibody followed with the secondary antibody (Fluorescein (FITC)-conjugated affinipure F(ad′)2 fragment Donkey anti-Mouse IgG). The cells were then mounted for microscopic visualization. The immunostained cells were visualized with a Zeiss LSM510 confocal microscope at wavelength of 488 nm for excitation and 520 nm for emission.
The treated cells were immunostained with an anti-Glut4 antibody followed with the secondary antibody (Fluorescein (FITC)-conjugated affinipure F(ad′)2 fragment Donkey anti-Mouse IgG). The cells were then mounted for microscopic visualization. The immunostained cells were visualized with a Zeiss LSM510 confocal microscope at wavelength of 488 nm for excitation and 520 nm for emission.

IR = IR phosphorylation by Western blot in CHO-IR cells; format: cell-based; settings: anti-phosphorylated IR antibody
Description: (§1) FIG. 6 illustrates that novel TGQ compounds stimulate IR and Akt phosphorylation in CHO-IR cells and Akt phosphorylation in 3T3-L1 fat cells. CHO-IR cells or 3T3-L1 adipocytes were induced under conditions as shown. Total protein was isolated from the cells and subjected SDS-PAGE and subsequently transferred to a […] membrane. The proteins on the membrane were detected by anti-phosphorylated IR or Akt antibodies. […] Thirty to 60 μg of total protein and the biotinylated protein marker was mixed with SDS sample buffer and heated at 95-100° C. for 5 minutes. Then, each sample and a marker were subjected to 8% SDS POLYACRYLAMIDE GEL ELECTROPHORESIS (SDS-PAGE). After electrophoresis, the proteins on the gel were transferred to a nitrocellulose. The nitrocellulose membrane was blocked, and then incubated with the desired primary antibody (specifically against either phosphorylated form of IR or Akt) overnight at 4° C. with gentle agitation. After overnight incubation, the membrane was washed, and then incubated with the HRP-conjugated secondary antibody for 1 hour at room temperature. Then, the membrane was washed, the proteins on the membrane were detected by a Western blotting LumiGLO system (Cell Signaling Tech, Inc) and finally visualized by exposing the membrane to an x-ray film in a cassette for a proper time, usually from 1 to 10 minutes.

Akt = Akt phosphorylation by Western blot in CHO-IR cells and 3T3-L1 adipocytes; format: cell-based; settings: CHO-IR cells or 3T3-L1 adipocytes; anti-phosphorylated Akt antibody
Description: as §1

3T3-L1 adipocytes = assay: Glucose uptake ([3H] 2-deoxy-D-glucose) assay in 3T3-L1 adipocytes; format: cell-based; settings: for glucose transport inducing activity compared with α-PGG: α-PGG 30 μM
Description: Glucose uptake activity in cells may be analyzed by measuring the uptake of 2-deoxy-D-[3H] glucose using a standard assay. Confluent 3T3-L1 adipocytes grown in 12-well plates are washed twice with serum-free DMEM and incubated with 1 mL of the same medium at 37° C. for 2 h. The cells are washed 3 times with Krebs-Ringer-Hepes (KRP) buffer and incubated with 0.9 mL KRP buffer at 37° C. for 30 min. Insulin (positive control) or the compounds of Formula I, II, or III (experimentals) are then added at pre-determined concentrations and adipocytes are incubated at 37° C. for 15 min. Glucose uptake is initiated by addition of 0.1 mL KRP buffer and 37 MBq/L 2-deoxy-D-[^3H] glucose and 1 mmol/L glucose as final concentrations. After 10 min, glucose uptake is terminated by washing the cells 3 times with cold PBS. The cells are lysed with 0.7 mL of 1% Triton X-100 at 37° C. for 20 min. The radioactivity retained by the cell lysates is determined by a scintillation counter. The dosage that induces the maximal glucose uptake can be selected among the experimental samples.
6Cl-α-TGQ and 6Cl-β-TGQ were synthesized as described above. α-TGQ was synthesized using methods analogous to the preparation of 6Cl-α-TGQ (Examples 1 and 2) starting from commercially available 6-deoxy-D-glucose. Alpha-pentagalloylglucose (α-PGG) was obtained. 3T3-L1 preadipocytes grown in 24-well plates were induced by MDI until they were differentiated into adipocytes. Adipocytes were washed twice with serum-free DMEM and incubated with 0.5 ml of the same medium in 10% C02 at 37 ° C. for 2 hours. The cells were washed 3 times with Kerbs-Ringer-HEPES (KRP) buffer (136 mM NaCl, 4.7 mM KCl, 1.25 mM CaCl2, 1.25 mM MgSO4 and 10 mM sodium phosphate buffer at pH 7.4) and then incubated with 0.45 ml KRP buffer at 37 ° C. for 30 minutes. Glucose transport inducing agents were individually added to the cells at predetermined concentrations and each condition was duplicated or triplicated, then the adipocytes were incubated at 37 ° C. for 15 minutes. Glucose uptake was initiated by the addition of 0.1 ml of KPR buffer supplemented with 1 μCi/ml [^3H] 2-deoxy-D-glucose and 1 mM cold glucose as the final concentration to the cells. After 10 min, the medium was aspirated and the plates were washed with ice-cold PBS three times to terminate the induced glucose uptake. The cells were lysed with 0.45 ml of 1% triton X-100 at 37 ° C. for 20 min. The radioactivity taken up by the cells was determined in a solution of 0.4 ml of the cell lysates and 5 ml of scintillation liquid using a scintillation counter (Beckman Instruments).
6Br-α-TGQ and 6Br-β-TGQ were chemically synthesized using a preparation analogous to the preparation of 6Cl-TGQ (Examples 1, 2 and 3) starting from commercially available 6-bromo-D-glucose. 6Cl-α-TGQ was synthesized as described above. Alpha-pentagalloylglucose (α-PGG) was obtained. Confluent 3T3-L1 adipocytes were purchased from ATCC and grown in 12-well plates are washed twice with serum-free DMEM and incubated with 1 mL of the same medium at 37° C. for 2 h. The cells are washed 3 times with Krebs-Ringer-Hepes (KRP) buffer and incubated with 0.9 mL KRP buffer at 37° C. for 30 min.
Glucose uptake was initiated by addition of 0.1 mL KRP buffer and 37 MBq/L 2-deoxy-D-[^3H] glucose and 1 mmol/L glucose as final concentrations, and the ^3H labeled glucose was then added to the cells for 15 min. […] The radioactivity retained by the cell lysates was determined by a scintillation counter. […]

3T3-L1 preadipocytes [1] = assay: MDI-induced differentiation of 3T3-L1 preadipocytes into adipocytes, measured by glucose uptake; format: cell-based; settings: MDI plus 20 μM compound; ten days after induction; FIG. 4
Description: FIG. 4 illustrates adipocyte differentiation induced by MDI. […] Ten days after the induction, cells were assayed for their respective ability to take up glucose from the media by a radioactive glucose uptake assay. Each sample (condition) was in triplicate. The concept that adipocyte differentiation can be indirectly measured by glucose uptake was based on the observation that only differentiated adipocytes can take up glucose through a Glut4-mediated pathway while undifferentiated preadipocytes cannot.
To determine the effective concentration of the compounds of Formula I, II, or III to use in preventing adipogenesis in vitro, undifferentiated preadipocytes are incubated either with a differentiation-induction cocktail, comprised of 3-isobutyl-1-methylxanthine, dexamethasone, and insulin (MDI); or with MDI plus the test compound. After about 10 days MDI induces differentiation, which is clearly visible as the change from fibroblast-like preadipocytes to round-shaped, fat vesicle-containing adipocytes. […]
Ten days after the induction, cells were assayed for their respective ability to take up glucose from the media by a standard radioactive glucose uptake assay. […] The adipocyte differentiation can be measured by glucose uptake because only differentiated adipocyte can take up glucose through Glut4-mediated pathway while undifferentiated preadipocytes cannot.

3T3-L1 preadipocytes [2] = settings: α-PGG used at 20 μM with MDI; cited from earlier work

Molecule: 6-chloro-1,2,3,4-tetragalloyl-D-quinovopyranose [6Cl-TGQ]
- Glut4 translocation to the cell membrane (Glut4; 30 μM compound): induced Glut4 translocation to the cell membrane
- IR phosphorylation (IR): can induce IR and Akt phosphorylation
- Akt phosphorylation (Akt): can induce IR and Akt phosphorylation

Molecule: CC1OC(OC(=O)c2cc(O)c(O)c(O)c2)C(OC(=O)c2cc(O)c(O)c(O)c2)C(OC(=O)c2cc(O)c(O)c(O)c2)C1OC(=O)c1cc(O)c(O)c(O)c1 (stereo not drawn) [α-TGQ]
- glucose transport stimulatory activity (3T3-L1 adipocytes; various concentrations): active

Molecule: 6-chloro-1,2,3,4-tetragalloyl-D-quinovopyranose [6Cl-β-TGQ]
- inhibition of adipocyte differentiation (3T3-L1 preadipocytes [1]): inhibit adipocyte differentiation

Molecule: insulin: the hormone which regulates glucose utilization; positive control
- Glut4 translocation to the cell membrane (Glut4; 1 μM insulin): induced Glut4 translocation to the cell membrane

Molecule: O=C(OC[C@H]1O[C@H](OC(=O)c2cc(O)c(O)c(O)c2)[C@H](OC(=O)c2cc(O)c(O)c(O)c2)[C@@H](OC(=O)c2cc(O)c(O)c(O)c2)[C@@H]1OC(=O)c1cc(O)c(O)c(O)c1)c1cc(O)c(O)c(O)c1 [α-PGG, pentagalloyl-α-D-glucopyranose]
- inhibition of adipocyte differentiation (known) (3T3-L1 preadipocytes [2]): known to inhibit the differentiation

Molecule: O=C(O[C@H]1O[C@H](CCl)[C@@H](OC(=O)c2cc(O)c(O)c(O)c2)[C@H](OC(=O)c2cc(O)c(O)c(O)c2)[C@H]1OC(=O)c1cc(O)c(O)c(O)c1)c1cc(O)c(O)c(O)c1 [6Cl-α-TGQ, 6-chloro-α-1,2,3,4-tetragallolyl-D-quinovopyranose]
- more glucose transported than the insulin controls (3T3-L1 adipocytes; 30 μM compound, insulin control 1 μM, FIG. 2): 10%
- glucose transport activity compared with insulin (3T3-L1 adipocytes; insulin 1 μM, FIG. 2): as active as insulin
- glucose transport inducing activity compared with α-PGG (3T3-L1 adipocytes; FIG. 2): more active than pentagalloyl-α-D-glucopyranose (α-PGG)
- glucose transport inducing activity compared with α-PGG (3T3-L1 adipocytes; FIG. 2, listed as 6Cl-α: TGQ): more active than α-PGG
- Glut4 translocation to the cell membrane (Glut4; 30 μM compound): induced Glut4 translocation to the cell membrane
- inhibition of adipocyte differentiation (3T3-L1 preadipocytes [1]): inhibit adipocyte differentiation
